This assay deals with STING (Homo sapiens, UniProt Q86WV6). Kind of assay: STING antagonist activity, cell-based ISG54 promoter-reporter luciferase measurement of IRF activity (THP-1 dual / RAW-ISG cells). The note with it: Antagonist Activity of Exemplary Compounds; cell line and agonist not given; read-out: IC50. Here is the method: THP-1 dual cells (InvivoGen) were cultured under 5% CO2 at 37° C. in RPMI containing 10% fetal bovine serum (FBS), 100 IU mL-1 penicillin and 100 μg mL-1 streptomycin. RAW-ISG cells (InvivoGen) were cultured under 5% CO2 at 37° C. in DMEM containing 10% fetal bovine serum (FBS), 100 IU mL-1 penicillin and 100 μg mL-1 streptomycin. THP-1 dual cells were seeded into the 96 well assay plate on the day of assay whereas RAW cells were seeded into the 96 well assay plate 18 hours before the assay.
50,000 cells seeded in a 96-well flat bottom white assay plate were treated with different concentrations (10 uM to 0.01 uM) of compounds for 1 h followed by STING induction with either 30 nM SB 11285 or 10 ug/mL 2′-3′ cGAMP. The cells were then incubated for 20 hours @ 37° C. in CO2 incubator before measuring IRF activation by using Quanti-Luc (InvivoGen). The % inhibition was calculated as 100−{[(luminescence of COI treated well/luminescence of non-COI treated well)/100]×100}. IC50 was calculated by plotting in Xlfit.
50,000 cells seeded in a 96-well flat bottom white assay plate were treated with different concentrations (10 uM to 0.01 uM) of compounds for 1 h followed by STING induction with either 1 μM SB 11285 or 10 ug/mL 2′-3′ cGAMP. The cells were then incubated for 20 hours @ 37° C. in CO2 incubator before measuring IRF activation by using Quanti-Luc (InvivoGen). The % inhibition was calculated as 100−{[(luminescence of COI treated well/luminescence of non-COI treated well)/100]×100}. IC50 was calculated by plotting in Xlfit.
THP1-Dual-WT cells (InvivoGen) were plated into 96-well flat bottom plate at 5×10^4 cells/140 μL/well in triplicate. Cells were then treated with diluted antagonist compounds at 10 μL/well for 1 h, followed by treatment with compounds or 2′3′-cGAMP/lipo mixture for 18 h. The levels of IRF activity were determined using Quanti-luc (InvivoGen) and calculated against IRF activity in DMSO-treated cells. IC50 and CC50 values were calculated using Xlfit.

As a reminder, the IC50 is the midpoint of a concentration-inhibition curve.

Chain of STING (Q86WV6 whole entry): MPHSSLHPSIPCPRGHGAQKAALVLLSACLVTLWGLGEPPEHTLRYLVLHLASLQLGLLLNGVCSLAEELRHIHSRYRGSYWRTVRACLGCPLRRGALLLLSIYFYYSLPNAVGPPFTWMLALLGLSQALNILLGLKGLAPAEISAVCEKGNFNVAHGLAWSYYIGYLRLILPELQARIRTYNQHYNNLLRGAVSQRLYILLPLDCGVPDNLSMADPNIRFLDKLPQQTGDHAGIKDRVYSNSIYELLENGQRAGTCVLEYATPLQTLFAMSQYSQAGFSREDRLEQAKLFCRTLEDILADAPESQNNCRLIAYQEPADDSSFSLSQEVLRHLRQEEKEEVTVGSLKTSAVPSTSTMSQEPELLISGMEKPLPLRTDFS

For the molecule `Cc1nc2c(Cl)nc(Cl)nc2n1CCCCCCCCCCCCCCCc1nnnn1C` [Compound 100, 2,6-dichloro-8-methyl-9-(15-(1-methyl-1H-tetrazol-5-yl)pentadecyl)-9H-purine], the IC50 was 5 to 10 µM. With `CCOC(=O)CCCCCCCCCCCCCCCn1c(C)nc2nc(Cl)nc(Cl)c21` [Compound 78, ethyl 16-(2,6-dichloro-8-methyl-7H-purin-7-yl)hexadecanoate], the IC50 lay within 0.001 to 1 µM.

Turning to `Cc1nc2nc(Cl)nc(Cl)c2n1CCCCCCCCCCCCCCCC(=O)OC[C@H](O)CO` [Compound 104, (R)-2,3-dihydroxypropyl 16-(2,6-dichloro-8-methyl-7H-purin-7-yl)hexadecanoate], the IC50 lay in the range of 0.001 to 1 µM. Regarding `Cc1nc2nc(Cl)nc(Cl)c2n1C/C=C/Cn1c(C)nc2nc(Cl)nc(Cl)c21` [Compound 103, (E)-1,4-bis(2,6-dichloro-8-methyl-7H-purin-7-yl)but-2-ene], the IC50 was in the range of 5 to 10 µM.

Turning to `Cc1nc2nc(Cl)nc(Cl)c2n1CCCCn1c(C)nc2nc(Cl)nc(Cl)c21` [Compound 64, 1,4-bis(2,6-dichloro-8-methyl-7H-purin-7-yl)butane], the IC50 is more than 20 µM. As for `COC(=O)CCCCCCCCCCCCCCCn1cnc2nc(Cl)nc(N)c21` [Compound 9, methyl (6-amino-2-chloro-7H-purin-7-yl)hexadecanoate], the figure is 1 to 5 µM. As for `COC(=O)Cn1c(C)nc2nc(Cl)nc(Cl)c21` [Compound 66, methyl 2-(2,6-dichloro-8-methyl-7H-purin-7-yl)acetate], the figure is 1 to 5 µM; as for `Cc1nc2nc(Cl)nc(Cl)c2n1CCCCCCCCCCCCCCCC(=O)OC(C)(C)C` [Compound 81, tert-butyl 16-(2,6-dichloro-8-methyl-7H-purin-7-yl)hexadecanoate], 1 to 5 µM. Consider `COC(=O)CCCCCCCCCCCCCCCn1cnc2ccnc(Cl)c21` [Compound 43], for which the IC50 was more than 20 µM. For `COC(=O)CCCCCCCCCCCCCCCn1c(C(C)C)nc2nc(Cl)nc(Cl)c21` [Compound 89, methyl 16-(2,6-dichloro-8-isopropyl-7H-purin-7-yl)hexadecanoate] the value was 0.001 to 1 µM. As for `COC(=O)CCCCCCCCCCCCCCCn1c(CN2CCOCC2)nc2nc(Cl)nc(Cl)c21` [Compound 154, methyl 16-(2,6-dichloro-8-(morpholinomethyl)-7H-purin-7-yl)hexadecanoate], the figure is 0.001 to 1 µM; as for `Cc1nc2nc(Cl)nc(S(=O)(=O)C(C)C)c2n1CCCCCCCCCCCCCCCc1n[nH]c(=O)o1` [Compound 165, 5-(15-(2-chloro-6-(isopropylsulfonyl)-8-methyl-7H-purin-7-yl)pentadecyl)-1,3,4-oxadiazol-2(3H)-one], 0.001 to 1 µM. Regarding `COC(=O)CCCCCCCCCCCCCCCn1c(-c2ccccc2)nc2nc(Cl)nc(Cl)c21` [Compound 71, methyl 16-(2,6-dichloro-8-phenyl-7H-purin-7-yl)hexadecanoate], the IC50 lay within 1 to 5 µM. For `CCCCCCCCC(C(=O)OCC)n1cnc2c(Cl)nc(Cl)nc21` (stereo not drawn) [Compound 18, ethyl 2-(2,6-dichloro-9H-purin-9-yl)decanoate], the IC50 lay within 1 to 5 µM. As for `COC(=O)CCCCCCCCCCCCCCCn1cnc2c(NCCS(N)(=O)=O)nc(Cl)nc21` [Compound 21], the figure is 10 to 20 µM.

In the case of `COC(=O)CCCCCCCCCn1c(C)nc2nc(Cl)nc([S+]([O-])C(C)C)c21` (stereo not drawn) [Compound 124, methyl 10-(2-chloro-6-(isopropylsulfinyl)-8-methyl-7H-purin-7-yl)decanoate], the IC50 lay in the range of 0.001 to 1 µM. As for `COc1ccc(Cn2c(C)nc3nc(Cl)nc(Cl)c32)cc1` [Compound 67, 2,6-dichloro-7-(4-methoxybenzyl)-8-methyl-7H-purine], the figure is 1 to 5 µM; as for `Cc1nc2nc(Cl)nc(S(=O)(=O)C(C)C)c2n1CCCCCCCCCCCCCCCC(=O)OC[C@@H](O)CO` [Compound 135, (S)-2,3-dihydroxypropyl 16-(2-chloro-6-(isopropylsulfonyl)-8-methyl-7H-purin-7-yl)hexadecanoate], 0.001 to 1 µM. For `COC(=O)CCCCCCN(C)CCCCCCCCn1c(C)nc2nc(Cl)nc(S(=O)(=O)C(C)C)c21` [Compound 152, Methyl 7-((8-(2-chloro-6-(isopropylsulfonyl)-8-methyl-7H-purin-7-yl)octyl)(methyl)-amino)heptanoate] the value was 1 to 5 µM. As for `COC(=O)CCCn1c(C)nc2nc(Cl)nc(Cl)c21` [Compound 116, methyl 4-(2,6-dichloro-8-methyl-7H-purin-7-yl)butanoate], the figure is 5 to 10 µM; as for `Cc1nc2nc(Cl)nc([S+]([O-])C(C)C)c2n1CCCCCCCCCCN1CCOCC1` (stereo not drawn) [Compound 136, 4-(10-(2-chloro-6-(isopropylsulfinyl)-8-methyl-7H-purin-7-yl)decyl)morpholine], 0.001 to 1 µM. `Cc1nc2nc(Cl)nc(Cl)c2n1CCCCCCCCCCCCCCCC(=O)OCCO` [Compound 84, 2-hydroxyethyl 16-(2,6-dichloro-8-methyl-7H-purin-7-yl)hexadecanoate]: the IC50 was in the range of 1 to 5 µM. As for `COC(=O)CCCCCCCCCCCCCCCn1cnc2c(Cl)nccc21` [Compound 44], the figure is more than 20 µM; as for `Cc1nc2nc(Cl)nc(Cl)c2n1CCCCCCCl` [Compound 65, 2,6-dichloro-7-(6-chlorohexyl)-8-methyl-7H-purine], 1 to 5 µM; as for `Cc1nc2nc(Cl)nc(S(=O)(=O)CCO)c2n1CCCCCCCCCCCCCCCC(=O)OC(C)C` [Compound 146, isopropyl 16-(2-chloro-6-((2-hydroxyethyl)sulfonyl)-8-methyl-7H-purin-7-yl)hexadecanoate], 0.001 to 1 µM. As for `COC(=O)CCCCCCCCCCCCCCCn1c(CO)nc2nc(Cl)nc(Cl)c21` [Compound 93, Methyl 16-(2,6-dichloro-8-(hydroxymethyl)-7H-purin-7-yl)hexadecanoate], the figure is 0.001 to 1 µM. For `COC(=O)CCCCCCCCCCCCCCCn1cnc2c(Cl)ccnc21` [Compound 42, methyl 16-(7-chloro-3H-imidazo[4,5-b]pyridin-3-yl) hexadecanoate] the value was more than 20 µM. In the case of `Cc1nc2nc(Cl)nc(S(=O)(=O)C(C)C)c2n1CCCCCCCCCCCCCCCC(=O)O` [Compound 139, 16-(2-chloro-6-(isopropylsulfonyl)-8-methyl-7H-purin-7-yl)hexadecanoic acid], the IC50 lay within 0.001 to 1 µM. As for `Clc1nc(Cl)c2c(ncn2CCCCCCCCCCCCn2cnc3nc(Cl)nc(Cl)c32)n1` [Compound 35, 1,12-bis(2,6-dichloro-7H-purin-7-yl) dodecane], the figure is 1 to 5 µM.

Turning to `CCOC(=O)CCCCCCCn1cnc2nc(Cl)nc(Cl)c21` [Compound 12], the IC50 lay within 0.001 to 1 µM.

For the molecule `CC(C)n1cnc2nc(Cl)nc(Cl)c21` [Compound 49, 2,6-dichloro-7-isopropyl-7H-purine], the IC50 was more than 20 µM. For `Cc1nc2nc(Cl)nc(S(=O)(=O)C(C)C)c2n1CCCCCCCCCCCCCCCC(=O)N1CCOCC1` [Compound 145, 16-(2-chloro-6-(isopropylsulfonyl)-8-methyl-7H-purin-7-yl)-1-morpholinohexadecan-1-one] the value was 0.001 to 1 µM; for `Cc1nc2nc(Cl)nc(Cl)c2n1CCCCCCCCCCCCCCCCN1CCOCC1` [Compound 105, 4-(16-(2,6-dichloro-8-methyl-7H-purin-7-yl)hexadecyl)morpholine], 0.001 to 1 µM. As for `CCCCCCCCC(C(=O)OCC)n1cnc2nc(Cl)nc(Cl)c21` (stereo not drawn) [Compound 36, ethyl 2-(2,6-dichloro-7H-purin-7-yl) decanoate], the figure is 1 to 5 µM; as for `OCCOCCOCCOCCn1cnc2c(Cl)nc(Cl)nc21` [Compound 51, 2-(2-(2-(2-(2,6-dichloro-9H-purin-9-yl)ethoxy)ethoxy)ethoxy)ethan-1-ol], more than 20 µM. On to `COC(=O)CCCCCOC1CCN(CCCCCCn2c(C)nc3nc(Cl)nc(Cl)c32)CC1` [Compound 156, Methyl 6-((1-(6-(2,6-dichloro-8-methyl-7H-purin-7-yl)hexyl)piperidin-4-yl)oxy)hexanoate], for which the 50% inhibitory concentration (IC50) fell in the range of 1 to 5 µM. As for `Cc1nc2nc(Cl)nc(Cl)c2n1CCCCCCO` [Compound 62, 6-(2,6-dichloro-8-methyl-7H-purin-7-yl)hexan-1-ol], the figure is 1 to 5 µM.

Regarding `Clc1nc(Cl)c2c(ncn2C/C=C\Cn2cnc3nc(Cl)nc(Cl)c32)n1` [Compound 58, (Z)-1,4-bis(2,6-dichloro-7H-purin-7-yl)but-2-ene], the IC50 is more than 20 µM. For `Cc1nc2nc(Cl)nc(S(=O)(=O)C(C)C)c2n1CCCCCCCCCCCCCCCC(=O)OCCO` [Compound 144, 2-hydroxyethyl 16-(2-chloro-6-(isopropylsulfonyl)-8-methyl-7H-purin-7-yl)hexadecanoate] the value was 0.001 to 1 µM.

The values are drawn from patent US20220168309A1 (F-STAR THERAPEUTICS, INC., priority 2019, published 2022).
